Key:
Nilaparvata lugens = assay: Insecticidal activity against Nilaparvata lugens (planthopper) by spraying; assay type: in vivo; settings: 500 ppm; for mortality (%) (500 ppm) Nilaparvata lugens: spraying 2 ml, counted after 24 hours; for mortality (%) (500 ppm) Nilaparvata-lugens: spraying 2 ml per tumbler, killed counted after 24 hours
Method in brief: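 Ten planthoppers per tumbler were introduced 6 hours before spraying with 2 ml of test solution, with clean water as blank control. Each treatment had 3 replicates, and three series were run. Mortality was counted after 24 hours.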

Aphis craccivoral = assay: Insecticidal activity against Aphis craccivoral by immersing (dipping aphids on bean sprout); assay type: in vivo; settings: 23° C.
Method in brief: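 Wingless adult A. craccivora feeding on bean sprouts dipped 5 seconds in compound at 500 ug/mL (0.2 mL/L Triton X-100 aqueous), then held at 23 °C. Mortality counted after 24 hours, three replicates, vehicle-only control.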

[1] = 500 ppm, immersing (dipped 5 seconds), counted after 24 hours
[2] = 500 ppm (500 ug/mL dilution), dipped 5 seconds, killed aphis counted after 24 hours

Row | Structure (SMILES) | mortality (%) (500 ppm) Nilaparvata lugens (Nilaparvata lugens) | mortality (%) (500 ppm) Aphis (Aphis craccivoral; [1]) | mortality (%) (500 ppm) Nilaparvata-lugens (Nilaparvata lugens) | mortality (%) (500 ppm) Aphis (Aphis craccivoral; [2])
1 | CCOCCOC1CCC([N+](=O)[O-])=C2N(Cc3cnc(Cl)s3)CCCN21 (stereo not drawn) [Compound 98] | 7 | 4 | – | –
2 | CCN=C1CCC([N+](=O)[O-])=C2N(Cc3ccc(Cl)nc3)CCN12 [Compound 190] | – | – | 100 | 89
3 | CC(C)N=C1CCC([N+](=O)[O-])=C2N(Cc3ccc(Cl)nc3)CCCN12 [Compound 206] | – | – | 98 | 56
4 | CC(C)(C)OC1CCC([N+](=O)[O-])=C2N(CC3CCOC3)CCCN21 (stereo not drawn) [Compound 110] | 98 | 67 | – | –
5 | O=[N+]([O-])C1=C2N(Cc3cnc(Cl)s3)CCN2C(OCCCl)CC1 (racemic) [Compound 26] | 64 | 26 | – | –
6 | CC(C)(C)OC1CCC([N+](=O)[O-])=C2N(CC3CCOC3)CCN21 (stereo not drawn) [Compound 56] | 100 | 100 | – | –
7 | CCCOC1CCC([N+](=O)[O-])=C2N(Cc3cnc(Cl)s3)CCN21 (racemic) [Compound 28] | 100 | 100 | – | –
8 | CCOC1CCC([N+](=O)[O-])=C2N(Cc3ccc(Cl)nc3)CCCN21 (stereo not drawn) [Compound 73] | 56 | 34 | – | –
9 | CC(C)(C)CN=C1CCC([N+](=O)[O-])=C2N(Cc3ccc(Cl)nc3)CCN12 [Compound 198] | – | – | 89 | 39
10 | O=[N+]([O-])C1=C2N(CC3CCOC3)CCN2C(OC2CCCCC2)CC1 (stereo not drawn) [Compound 63] | 6 | 2 | – | –
11 | CCCCCOC1CCC([N+](=O)[O-])=C2N(CC3CCOC3)CCN21 (stereo not drawn) [Compound 58] | 23 | 34 | – | –
12 | CCCOC1CCC([N+](=O)[O-])=C2N(Cc3cnc(Cl)s3)CCCN21 (stereo not drawn) [Compound 90] | 51 | 34 | – | –
13 | O=[N+]([O-])C1=C2N(CC3CCOC3)CCN2C(O)CC1 (stereo not drawn) [Compound 45] | 89 | 56 | – | –
14 | O=C(OC1CCC([N+](=O)[O-])=C2N(Cc3cnc(Cl)s3)CCN21)c1cc(F)c(F)cc1F (stereo not drawn) [Compound 166] | – | – | 45 | 0
15 | CCOC1CCC([N+](=O)[O-])=C2N(Cc3cnc(Cl)s3)CCCN21 (stereo not drawn) [Compound 87] | 100 | 100 | – | –
16 | N=C1CCC([N+](=O)[O-])=C2N(Cc3ccc(Cl)nc3)CCN12 [Compound 188] | – | – | 67 | 55
17 | N=C1CCC([N+](=O)[O-])=C2N(Cc3cnc(Cl)s3)CCN12 [Compound 212] | – | – | 23 | 34
18 | N=C1CCC([N+](=O)[O-])=C2N(Cc3cnc(Cl)s3)CCCN12 [Compound 220] | – | – | 56 | 16
